# In US7732582B2, “Benzonaphthacene glycoside derivative and use thereof” (FUJIFILM Corporation, priority 2004, dated 2010):
# Tests used:
# C. albicans A9540 = experiment: Antifungal activity test, agar dilution method; type: cell-based; details: for MIC C. albicans A9540: yeast morphology agar, pH 7.0, 30° C. for 2 days; for antifungal activity against C. albicans (in words): compared with control BMY28864
# Description: (§1) Antifungal activity was measured by the agar dilution method utilizing the yeast morphology agar (0.15 M phosphate buffer, pH 7.0). Each microorganism was inoculated in an amount of 5 μl of 2×10^6 cells/ml solution per spot, and cultured at 30° C. for 2 days. The results were represented in terms of the minimum growth inhibitory concentration. As a control compound, BMY28864 was used.
# C. neoformans ATCC 90112 = experiment: Antifungal activity test, agar dilution method; type: cell-based; details: for MIC C. neoformans ATCC 90112: yeast morphology agar, pH 7.0, 30° C. for 2 days; for antifungal activity against C. neoformans (in words): compared with control BMY28864
# Description: as §1
# A. fumigatus IFO8866 = experiment: Antifungal activity test, agar dilution method; type: cell-based; details: for MIC A. fumigatus IFO8866: yeast morphology agar, pH 7.0, 30° C. for 2 days; for antifungal activity against A. fumigatus (in words): compared with control BMY28864
# Description: as §1
# [1] = Solubility test in PBS(−) and PBS(+) solution; type: physicochemical; details: for Solubility PBS(+): PBS(+) solution (with CaCl2 and MgCl2); for Solubility PBS (−): PBS(−) solution, ultrasonicated at 30° C. 10 minutes, room temperature 2 hours, absorbance at 500 nm
# Description: PBS tablets (ICN Bioohemi Inc., containing 0.02 g of KH2PO4, 0.115 g of Na2HPO4, 0.02 g of KCl and […] of NaCl per tablet) were dissolved in distilled water (100 ml), and the solution was autoclaved to obtain a PBS(−) solution. The PBS(−) solution (80 ml) was added with CaCl2 dihydrate (1 g/L, 10 ml) and MgCl2 hexahydrate (1 g/L, 10 ml) to prepare a PBS(+) solution.
# Each test compound (1 mg) was added to the PBS(−) solution (300 μl), and the mixture was ultrasonicated at 30° C. for 10 minutes, and left at room temperature for 2 hours. Then, the mixture was centrifuged (12,000 rpm, 10 minutes), the supernatant was diluted 50 times with 0.01 N sodium hydroxide solution, and absorbance of the diluted mixture was measured at 500 nm.
# The solubility in the PBS(+) solution can also be obtained in a similar manner.
# Mannan binding test = experiment: Mannan binding test; set-up: species or system yeast; details: PBS(+); incubation at 30° C. for 24 hours; ~0: below detection limit (trace)
# Description: A PBS(+) solution (100 μl) of mannan (Sigma, derived from yeast, 50 μg/ml) and a PBS(+) solution (100 μl) of each test compound (40 μg/ml) were mixed, and incubated at 30° C. for 24 hours. Then, the mixture was centrifuged (14,000 rpm, 4° C., 5 minutes), the supernatant was diluted 10 times with 0.01 N sodium hydroxide solution, and absorbance of the diluted mixture was measured at 500 nm. The amount of the dissolved compound was calculated on the basis of E1 cm1%180 (500 nm), and the amount of the compound binding to mannan was calculated.
MIC C. albicans A9540 (C. albicans A9540) [µg/mL],MIC C. neoformans ATCC 90112 (C. neoformans ATCC 90112) [µg/mL],MIC A. fumigatus IFO8866 (A. fumigatus IFO8866) [µg/mL],Solubility PBS(+) [1],Solubility PBS (−) [1],Binding to mannan (Mannan binding test),Structure (SMILES),antifungal activity against C. albicans (in words) (C. albicans A9540),antifungal activity against C. neoformans (in words) (C. neoformans ATCC 90112),antifungal activity against A. fumigatus (in words) (A. fumigatus IFO8866)
6.3,3.1,12.5,"16,000 μg/ml","14,000 μg/ml",0.81 μg/1 μg of mannan,"COc1cc(O)c2c(c1)C(=O)c1c(cc3c(c1O)-c1c(cc(C)c(C(=O)N[C@H](CO)C(=O)O)c1O)[C@H](O[C@@H]1O[C@H](C)[C@H](N(C)C)[C@H](O[C@@H]4OC[C@@H](O)[C@H](O)[C@H]4O)[C@H]1O)[C@H]3O)C2=O [BMY28864, N,N′-dimethylpradimicin FA-2, reference compound]",–,–,–
–,–,–,68.5 µg/mL,39.5 µg/mL,0.89 μg/1 μg of mannan,"CN[C@@H]1[C@H](O[C@@H]2OC[C@@H](O)[C@H](O)[C@H]2O)[C@@H](O)[C@H](O[C@H]2c3cc(C)c(C(=O)N[C@H](C)C(=O)O)c(O)c3-c3c(cc4c(c3O)C(=O)c3cc(OC)cc(O)c3C4=O)[C@@H]2O)O[C@@H]1C [PRM A, Pradimicin (PRM) A, reference compound]",–,–,–
–,–,–,950 µg/mL,"1,900 μg/ml",0.79 μg/1 μg of mannan,"COc1cc(O)c2c(c1)C(=O)c1c(cc3c(c1O)-c1c(cc(C)c(C(=O)N[C@H](C)C(=O)O)c1O)[C@H](O[C@@H]1O[C@H](C)[C@H](N(C)C)[C@H](O[C@@H]4OC[C@@H](O)[C@H](O)[C@H]4O)[C@H]1O)[C@H]3O)C2=O [N,N-Me2-PRM C, reference compound]",–,–,–
6.3,3.1,25,"1,850 μg/ml","1,400 μg/ml",~0 μg/1 μg of mannan,"COc1cc(O)c2c(c1)C(=O)c1c(cc3c(c1O)-c1c(cc(C)c(C(=O)N[C@H](C)C(=O)O)c1O)[C@H](O[C@@H]1O[C@H](C)[C@H](N(C)C)[C@H](O[C@H](OCC(=O)O)C(=O)O)[C@H]1O)[C@H]3O)C2=O [N,N-Me2-PRM C-DCA]",almost equal to those of BMY28884,almost equal to those of BMY28884,lower than that of BMY28884
6.3,12.5,>50,"2,300 μg/ml","2,250 μg/ml",0.02 μg/1 μg of mannan,CN[C@@H]1[C@H](O[C@H](OCC(=O)O)C(=O)O)[C@@H](O)[C@H](O[C@H]2c3cc(C)c(C(=O)N[C@H](C)C(=O)O)c(O)c3-c3c(cc4c(c3O)C(=O)c3cc(OC)cc(O)c3C4=O)[C@@H]2O)O[C@@H]1C [PRM A-DCA],maintained,maintained,relatively low

Structure (SMILES),MIC C. albicans A9540 (C. albicans A9540) [µg/mL],MIC C. neoformans ATCC 90112 (C. neoformans ATCC 90112) [µg/mL],MIC A. fumigatus IFO8866 (A. fumigatus IFO8866) [µg/mL],Solubility PBS(+) [1],Solubility PBS (−) [1],Binding to mannan (Mannan binding test),antifungal activity against C. albicans (in words) (C. albicans A9540),antifungal activity against C. neoformans (in words) (C. neoformans ATCC 90112),antifungal activity against A. fumigatus (in words) (A. fumigatus IFO8866)
COc1cc(O)c2c(c1)C(=O)c1c(cc3c(c1O)-c1c(cc(C)c(C(=O)N[C@H](CO)C(=O)O)c1O)[C@H](O[C@@H]1O[C@H](C)[C@H](N(C)C)[C@H](O[C@H](OCC(=O)O)C(=O)O)[C@H]1O)[C@H]3O)C2=O [BMY28864-DCA],12.5,25,>50,"37,500 μg/ml","37,500 μg/ml",0.28 μg/1 μg of mannan,maintained,maintained,relatively low
